Source: US8906952B2, “Indole derivative or pharmaceutically acceptable salt thereof, preparation method thereof, and pharmaceutical composition for preventing or treating metabolic diseases containing same as active ingredient” (Korea Research Institute of Bioscience and Biotechnology, priority 2011, dated 2014)
Read-outs that look alike come from different tables or passages of the source.

What was measured:
Assay type in all cases: biochemical
[1] = biological target: T1, hDGAT-1 (HuTu 80) (Homo sapiens, UniProt O75907); experiment: DGAT enzyme inhibition test, microsomal protein from human duodenal adenocarcinoma (Hutu 80); conditions: microsomal protein from HuTu 80
T1 construct: microsomal protein isolated from human duodenal adenocarcinoma (‘Hutu 80’); endogenous in cells; host or cells: HuTu 80 human duodenal adenocarcinoma cells (microsomes)
T1 sequence (O75907 1-488): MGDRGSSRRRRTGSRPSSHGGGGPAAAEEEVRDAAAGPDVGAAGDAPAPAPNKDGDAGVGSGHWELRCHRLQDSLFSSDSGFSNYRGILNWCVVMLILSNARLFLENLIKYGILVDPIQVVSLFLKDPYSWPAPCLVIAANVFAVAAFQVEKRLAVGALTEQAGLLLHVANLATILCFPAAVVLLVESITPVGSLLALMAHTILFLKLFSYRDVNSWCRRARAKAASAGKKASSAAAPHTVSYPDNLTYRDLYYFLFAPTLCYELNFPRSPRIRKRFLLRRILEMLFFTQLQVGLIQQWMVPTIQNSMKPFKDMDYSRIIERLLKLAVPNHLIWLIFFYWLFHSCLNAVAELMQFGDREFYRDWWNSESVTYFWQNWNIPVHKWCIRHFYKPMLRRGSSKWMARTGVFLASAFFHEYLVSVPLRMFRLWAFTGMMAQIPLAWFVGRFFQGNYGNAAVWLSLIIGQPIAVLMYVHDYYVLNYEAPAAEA
Source text: (§1) To investigate inhibitory effect of the compounds of Examples 1-33 against DGAT enzyme activity, DGAT enzyme inhibition and DGAT2 selectivity were investigated using zymogen including:
2) DGAT enzyme derived from human duodenal adenocarcinoma (‘Hutu 80’), and
(§2) To be specific, for the purpose of measuring human-derived DGAT enzyme inhibitory activity, using the zymogen, including enzymes derived from insect cell overexpressing human DGAT1 and DGAT2 (‘sf9’), microsomal protein isolated from human duodenal adenocarcinoma (‘Hutu 80’), and microsomal protein isolated from rat, and according to Coleman et al., (Methods Enzymol., 98-103, 1992), and substrate including 1,2-diacylglycerol(Sigma, D0138) and [^14C]palmitoyl-CoA (Amersham, CFA583), the amount of radiation of [^14C]triacylglycerol produced after enzymatic reaction was measured.
(§3) To be more specific, to the reaction solution containing 175 mM Tris-HCl (pH 8.0), 20 μl bovine serum albumin (10 mg/ml), 100 mM magnesium chloride, 30 μM [^14C]palmitoyl CoA (0.02 μCi, Amersham) and 200 μM 1,2-dioleoylglycerol, reagent dissolved in dimethylsulfoxide (10.0 μl) was added. After introducing 100 to 200 μg isolated microsomal protein and allowing the same to react at 25° C. for 10 min, the reaction was stopped by adding 1.5 ml stop solution (2-propanol:heptane:water=80:20:2, v:v:v). To isolate the product of the reaction (i.e., [^14C]triacylglycerol), 1 ml heptane and 0.5 ml distilled water were added and then decocted. After taking 1 ml supernatant, 2 ml alkaline ethanol solution (ethanol:0.5 N sodium hydroxide:water=50:10:40, v:v:v) were added and then decocted. After taking 0.65 ml supernatant from the decoction, the amount of radiation was measured with liquid scintillation counter (LSC). The DGAT inhibitory activity was calculated with Mathematical Expression 1 below:
(§4) T denotes cpm of experimental group in which the enzymatic reaction solution was treated with the sample,
(§5) C denotes cpm of control group in which the enzymatic reaction solution was not treated with the sample, and
(§6) B denotes cpm of control group treated with the sample without zymogen.

[2] = biological target: T2, DGAT-1 (rat liver) (Rattus norvegicus, UniProt Q9ERM3); experiment: DGAT enzyme inhibition test, rat liver-derived DGAT enzyme; conditions: rat liver microsomal protein
T2 construct: microsomal protein isolated from rat; from tissue; host or cells: rat liver microsomes
T2 sequence (Q9ERM3 1-498): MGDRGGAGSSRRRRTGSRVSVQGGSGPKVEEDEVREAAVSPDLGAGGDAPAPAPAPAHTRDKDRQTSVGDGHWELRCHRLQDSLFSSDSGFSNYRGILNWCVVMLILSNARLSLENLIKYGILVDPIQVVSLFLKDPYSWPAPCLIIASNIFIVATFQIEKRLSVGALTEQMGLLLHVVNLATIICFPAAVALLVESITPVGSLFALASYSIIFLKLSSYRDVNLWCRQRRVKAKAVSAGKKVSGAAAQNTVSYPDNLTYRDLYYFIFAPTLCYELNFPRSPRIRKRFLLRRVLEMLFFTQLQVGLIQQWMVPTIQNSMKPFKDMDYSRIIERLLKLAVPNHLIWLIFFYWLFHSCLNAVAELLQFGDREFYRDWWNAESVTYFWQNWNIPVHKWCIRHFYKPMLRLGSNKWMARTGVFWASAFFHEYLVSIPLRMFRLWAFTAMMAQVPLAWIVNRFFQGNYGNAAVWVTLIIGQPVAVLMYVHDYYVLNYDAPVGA
Source text: as §1
3) rat liver-derived DGAT enzyme.
as §2, §3, §4, §5, §6

[3] = biological target: T3, human DGAT1 (Homo sapiens, UniProt O75907); experiment: DGAT enzyme inhibition test, hDGAT1 enzyme from sf9 insect cells; conditions: enzyme from sf9 cells overexpressing hDGAT1; read-out: hDGAT-1 (sf9) IC50
T3 construct: made in house; host or cells: sf9 insect cells
T3 sequence (O75907 1-488): T1 sequence (O75907 1-488)
Summary of the method: (§7)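 Microsomes (100–200 μg) from sf9 cells overexpressing the human enzyme were incubated 10 min at 25 °C with compound in 175 mM Tris-HCl pH 8.0, 100 mM MgCl2, BSA, 30 μM [14C]palmitoyl-CoA and 200 μM 1,2-dioleoylglycerol. Extracted [14C]triacylglycerol was counted by LSC. Inhibition was calculated from treated, untreated and no-enzyme counts.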

[4] = biological target: T4, human DGAT2 (Homo sapiens, UniProt Q96PD7); experiment: DGAT enzyme inhibition test, hDGAT2 enzyme from sf9 insect cells (DGAT2 selectivity)
T4 construct: made in house; host or cells: sf9 insect cells
T4 sequence (Q96PD7 1-388): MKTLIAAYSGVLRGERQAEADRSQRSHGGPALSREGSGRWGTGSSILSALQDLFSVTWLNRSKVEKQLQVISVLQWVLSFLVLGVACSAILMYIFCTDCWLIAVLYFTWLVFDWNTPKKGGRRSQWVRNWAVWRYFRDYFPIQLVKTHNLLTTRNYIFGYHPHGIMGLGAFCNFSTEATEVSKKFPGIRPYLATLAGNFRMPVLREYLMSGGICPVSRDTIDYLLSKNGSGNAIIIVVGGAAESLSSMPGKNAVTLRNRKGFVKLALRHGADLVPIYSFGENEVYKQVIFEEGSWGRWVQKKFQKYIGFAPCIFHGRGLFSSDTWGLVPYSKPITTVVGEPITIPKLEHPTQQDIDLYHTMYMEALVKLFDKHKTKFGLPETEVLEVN
Summary of the method: as §7

[5] = 10 μM, enzyme from sf9 cells overexpressing hDGAT2, read-out: hDGAT-2 (sf9) inhibition rate(%)at 10 μM
[6] = concentration of 10 μM, read-out: hDGAT2 inhibition

Structure (SMILES)	IC50 [1] [µM]	IC50 [2] [µM]	IC50 [3] [µM]	inhibition at 10 µM [4, 5] [%]	inhibition at 10 µM [4, 6] [%]
CC(C)N(NC(=O)c1cccc(O)c1)C(=O)/C=C/c1cn(C(=O)OC(C)(C)C)c2ccccc12 [Example 4, (E)-tert-butyl 3-(3-(2-(3-hydroxybenzoyl)-1-isopropylhydrazinyl)-3-oxoprop-1-enyl)-1H-indole-1-carboxylate]	12.4	22.4	> 100	< 0	–
CC(C)N(NC(=O)c1cccc(Br)c1)C(=O)/C=C/c1cn(C(=O)OC(C)(C)C)c2ccccc12 [Example 12, (E)-tert-butyl 3-(3-(2-(3-bromobenzoyl)-1-isopropylhydrazinyl)-3-oxoprop-1-enyl)-1H-indole-1-carboxylate]	2.6	1.7	6.8	3.9	< 11
CC(C)N(NC(=O)c1ccccc1)C(=O)/C=C/c1cn(C(=O)OC(C)(C)C)c2ccccc12 [Example 1, (E)-tert-butyl 3-(3-(2-benzoyl-1-isopropylhydrazinyl)-3-oxoprop-1-enyl)-1H-indole-1-carboxylate]	1.4	1.1	9.6	7.5	< 11
CC(C)N(NC(=O)c1ccc(O)cc1)C(=O)/C=C/c1cn(C(=O)OC(C)(C)C)c2ccccc12 [Example 5, (E)-tert-butyl 3-(3-(2-(4-hydroxybenzoyl)-1-isopropylhydrazinyl)-3-oxoprop-1-enyl)-1H-indole-1-carboxylate]	6.6	16.3	22.5	< 0	< 11

Second part, the compound after the results:

IC50 [1] [µM]	IC50 [2] [µM]	IC50 [3] [µM]	inhibition at 10 µM [4, 5] [%]	inhibition at 10 µM [4, 6] [%]	Structure (SMILES)
8.1	2.9	41.6	< 0	< 11	CC(C)N(NC(=O)c1ccccc1)C(=O)/C=C/c1cn(CC2CC2)c2ccccc12 [Example 28, (E)-N′-(3-(1-(cyclopropylmethyl)-1H-indol-3-yl)acryloyl)-N′-isopropylbenzohydrazide]
2.9	2.4	13.6	5	< 11	CC(C)N(NC(=O)c1ccccc1)C(=O)/C=C/c1cn(Cc2ccccc2)c2ccccc12 [Example 26, (E)-N′-(3-(1-benzyl-1H-indol-3-yl)acryloyl)-N′-isopropylbenzohydrazide]
29.6	29.1	> 100	1.3	–	CC(C)N(NC(=O)c1ccccc1)C(=O)CCc1cn(Cc2ccccc2)c2ccccc12 [Example 21, N′-(3-(1-benzyl-1H-indol-3-yl)propanoyl)-N′-isopropylbenzohydrazide]
29.2	9.3	28.3	< 0	–	CC(C)N(NC(=O)c1ccccc1)C(=O)/C=C/c1cn(C)c2ccccc12 [Example 25]
2.6	0.5	11.8	1.2	< 11	CC(C)=CCn1cc(/C=C/C(=O)N(NC(=O)c2ccccc2)C(C)C)c2ccccc21 [Example 27, (E)-N′-isopropyl-N′-(3-(1-(3-methylbut-2-enyl)-1H-indol-3-yl)acryloyl)benzohydrazide]
